Assay results taken from the NIST ThermoML archive (doi:10.1021/je700261b).
Numbers after ± are expanded uncertainties.

Test: xn = mol fraction of the nth substance listed
Conditions: Liquid

## CCCCO [butan-1-ol] + O=C=O
352.82 K, 13001 kPa, x2 = 0.1842
  mass density: 780.49 ± 0.58 kg/m3
352.82 K, 14050 kPa, x2 = 0.1842
  mass density: 781.67 ± 0.59 kg/m3
352.82 K, 15000 kPa, x2 = 0.1842
  mass density: 782.72 ± 0.6 kg/m3
352.82 K, 15999 kPa, x2 = 0.1842
  mass density: 783.84 ± 0.61 kg/m3
352.82 K, 17008 kPa, x2 = 0.1842
  mass density: 784.88 ± 0.62 kg/m3
352.82 K, 18066 kPa, x2 = 0.1842
  mass density: 786.01 ± 0.63 kg/m3
352.82 K, 19002 kPa, x2 = 0.1842
  mass density: 787.01 ± 0.64 kg/m3
352.82 K, 20015 kPa, x2 = 0.1842
  mass density: 788.03 ± 0.65 kg/m3
352.82 K, 21043 kPa, x2 = 0.1842
  mass density: 789.11 ± 0.66 kg/m3
352.82 K, 22025 kPa, x2 = 0.1842
  mass density: 790.1 ± 0.67 kg/m3
352.82 K, 23024 kPa, x2 = 0.1842
  mass density: 791.11 ± 0.68 kg/m3
352.82 K, 24015 kPa, x2 = 0.1842
  mass density: 792.1 ± 0.69 kg/m3
352.82 K, 25100 kPa, x2 = 0.1842
  mass density: 793.18 ± 0.7 kg/m3
352.83 K, 2007 kPa, x2 = 0.0857
  mass density: 766.96 ± 0.48 kg/m3
352.83 K, 3023 kPa, x2 = 0.0857
  mass density: 768.13 ± 0.49 kg/m3
352.83 K, 3953 kPa, x2 = 0.0857
  mass density: 769.18 ± 0.5 kg/m3
352.83 K, 5008 kPa, x2 = 0.0857
  mass density: 770.34 ± 0.51 kg/m3
352.83 K, 5991 kPa, x2 = 0.0857
  mass density: 771.43 ± 0.51 kg/m3
352.83 K, 7011 kPa, x2 = 0.0857
  mass density: 772.54 ± 0.52 kg/m3
352.83 K, 7992 kPa, x2 = 0.0857
  mass density: 773.57 ± 0.53 kg/m3
352.83 K, 9016 kPa, x2 = 0.0857
  mass density: 774.63 ± 0.54 kg/m3
352.83 K, 10033 kPa, x2 = 0.0857
  mass density: 775.71 ± 0.55 kg/m3
352.83 K, 10983 kPa, x2 = 0.0857
  mass density: 776.62 ± 0.56 kg/m3
352.83 K, 12020 kPa, x2 = 0.0857
  mass density: 777.74 ± 0.57 kg/m3
352.83 K, 13038 kPa, x2 = 0.0857
  mass density: 778.75 ± 0.58 kg/m3
352.83 K, 13990 kPa, x2 = 0.0857
  mass density: 779.64 ± 0.59 kg/m3
352.83 K, 14986 kPa, x2 = 0.0857
  mass density: 780.63 ± 0.6 kg/m3
352.83 K, 16028 kPa, x2 = 0.0857
  mass density: 781.61 ± 0.61 kg/m3
352.83 K, 16995 kPa, x2 = 0.0857
  mass density: 782.54 ± 0.62 kg/m3
352.83 K, 17994 kPa, x2 = 0.0857
  mass density: 783.45 ± 0.63 kg/m3
352.83 K, 18991 kPa, x2 = 0.0857
  mass density: 784.4 ± 0.64 kg/m3
352.83 K, 20014 kPa, x2 = 0.0857
  mass density: 785.33 ± 0.66 kg/m3
352.83 K, 21017 kPa, x2 = 0.0857
  mass density: 786.18 ± 0.67 kg/m3
352.83 K, 21993 kPa, x2 = 0.0857
  mass density: 787.09 ± 0.68 kg/m3
352.83 K, 23041 kPa, x2 = 0.0857
  mass density: 788.01 ± 0.69 kg/m3
352.83 K, 24037 kPa, x2 = 0.0857
  mass density: 788.92 ± 0.7 kg/m3
352.83 K, 25058 kPa, x2 = 0.0857
  mass density: 789.81 ± 0.71 kg/m3
352.85 K, 13091 kPa, x2 = 0.4972
  mass density: 783.81 ± 0.58 kg/m3
352.85 K, 13958 kPa, x2 = 0.4972
  mass density: 785.52 ± 0.59 kg/m3
352.85 K, 15066 kPa, x2 = 0.4972
  mass density: 787.67 ± 0.6 kg/m3
352.85 K, 16029 kPa, x2 = 0.4972
  mass density: 789.49 ± 0.61 kg/m3
352.85 K, 17077 kPa, x2 = 0.4972
  mass density: 791.44 ± 0.61 kg/m3
352.85 K, 18031 kPa, x2 = 0.4972
  mass density: 793.15 ± 0.62 kg/m3
352.85 K, 19033 kPa, x2 = 0.4972
  mass density: 794.93 ± 0.63 kg/m3
352.85 K, 20018 kPa, x2 = 0.4972
  mass density: 796.63 ± 0.64 kg/m3
352.85 K, 21055 kPa, x2 = 0.4972
  mass density: 798.4 ± 0.65 kg/m3
352.85 K, 22035 kPa, x2 = 0.4972
  mass density: 800 ± 0.65 kg/m3
352.85 K, 23067 kPa, x2 = 0.4972
  mass density: 801.7 ± 0.66 kg/m3
352.85 K, 24007 kPa, x2 = 0.4972
  mass density: 803.18 ± 0.67 kg/m3
352.85 K, 25035 kPa, x2 = 0.4972
  mass density: 804.81 ± 0.68 kg/m3
352.88 K, 14075 kPa, x2 = 0.5965
  mass density: 780.49 ± 0.6 kg/m3
352.88 K, 15042 kPa, x2 = 0.5965
  mass density: 783.18 ± 0.61 kg/m3
352.88 K, 16039 kPa, x2 = 0.5965
  mass density: 785.88 ± 0.61 kg/m3
352.88 K, 17076 kPa, x2 = 0.5965
  mass density: 788.55 ± 0.65 kg/m3
352.88 K, 18030 kPa, x2 = 0.5965
  mass density: 790.96 ± 0.63 kg/m3
352.88 K, 18449 kPa, x2 = 0.8663
  mass density: 712.26 ± 1.5 kg/m3
352.88 K, 19037 kPa, x2 = 0.5965
  mass density: 793.41 ± 0.64 kg/m3
352.88 K, 19044 kPa, x2 = 0.8663
  mass density: 719.05 ± 0.88 kg/m3
352.88 K, 20049 kPa, x2 = 0.5965
  mass density: 795.8 ± 0.65 kg/m3
352.88 K, 20064 kPa, x2 = 0.8663
  mass density: 729.73 ± 0.84 kg/m3
352.88 K, 21030 kPa, x2 = 0.5965
  mass density: 798.05 ± 0.65 kg/m3
352.88 K, 21052 kPa, x2 = 0.8663
  mass density: 739.04 ± 0.82 kg/m3
352.88 K, 22036 kPa, x2 = 0.5965
  mass density: 800.27 ± 0.66 kg/m3
352.88 K, 22047 kPa, x2 = 0.8663
  mass density: 747.62 ± 0.79 kg/m3
352.88 K, 23019 kPa, x2 = 0.5965
  mass density: 802.43 ± 0.66 kg/m3
352.88 K, 23067 kPa, x2 = 0.8663
  mass density: 755.76 ± 0.78 kg/m3
352.88 K, 24035 kPa, x2 = 0.8663
  mass density: 762.91 ± 0.78 kg/m3
352.88 K, 24039 kPa, x2 = 0.5965
  mass density: 804.6 ± 0.67 kg/m3
352.88 K, 25048 kPa, x2 = 0.8663
  mass density: 769.99 ± 0.77 kg/m3
352.88 K, 25092 kPa, x2 = 0.5965
  mass density: 806.79 ± 0.68 kg/m3
362.66 K, 20602 kPa, x2 = 0.9698
  mass density: 595.03 ± 1.1 kg/m3
362.66 K, 21041 kPa, x2 = 0.9698
  mass density: 604.05 ± 1.1 kg/m3
362.66 K, 22017 kPa, x2 = 0.9698
  mass density: 622.53 ± 1.1 kg/m3
362.66 K, 23022 kPa, x2 = 0.9698
  mass density: 639.79 ± 1.1 kg/m3
362.66 K, 24038 kPa, x2 = 0.9698
  mass density: 655.56 ± 1 kg/m3
362.66 K, 25046 kPa, x2 = 0.9698
  mass density: 669.85 ± 1 kg/m3
362.67 K, 1053 kPa, x2 = 0.0251
  mass density: 755.01 ± 0.48 kg/m3
362.67 K, 2066 kPa, x2 = 0.0251
  mass density: 756.19 ± 0.49 kg/m3
362.67 K, 3045 kPa, x2 = 0.0251
  mass density: 757.27 ± 0.49 kg/m3
362.67 K, 4013 kPa, x2 = 0.0251
  mass density: 758.36 ± 0.5 kg/m3
362.67 K, 5068 kPa, x2 = 0.0251
  mass density: 759.49 ± 0.51 kg/m3
362.67 K, 6009 kPa, x2 = 0.0251
  mass density: 760.49 ± 0.52 kg/m3
362.67 K, 6988 kPa, x2 = 0.0251
  mass density: 761.58 ± 0.53 kg/m3
